Laboratory results from ChEMBL document CHEMBL4152229, “Synthesis and biological evaluation of 2,6-disubstituted-9H-purine, 2,4-disubstitued-thieno[3,2-d]pyrimidine and -7H-pyrrolo[2,3-d]pyrimidine analogues as novel CHK1 inhibitors” (Eur J Med Chem, 2018).
The source made the active and inactive calls. The rule behind the calls is not given here.

What was measured:
[1] = target: T1, Serine/threonine-protein kinase Chk1 (Homo sapiens) (UniProt O14757); experiment: Inhibition of DNA-tagged CHK1 (unknown origin) expressed in HEK293 cells at 10 uM after 1 hr by real-time fluorescent quantitative PCR analysis; assay type: cell-based
T1 sequence (whole entry): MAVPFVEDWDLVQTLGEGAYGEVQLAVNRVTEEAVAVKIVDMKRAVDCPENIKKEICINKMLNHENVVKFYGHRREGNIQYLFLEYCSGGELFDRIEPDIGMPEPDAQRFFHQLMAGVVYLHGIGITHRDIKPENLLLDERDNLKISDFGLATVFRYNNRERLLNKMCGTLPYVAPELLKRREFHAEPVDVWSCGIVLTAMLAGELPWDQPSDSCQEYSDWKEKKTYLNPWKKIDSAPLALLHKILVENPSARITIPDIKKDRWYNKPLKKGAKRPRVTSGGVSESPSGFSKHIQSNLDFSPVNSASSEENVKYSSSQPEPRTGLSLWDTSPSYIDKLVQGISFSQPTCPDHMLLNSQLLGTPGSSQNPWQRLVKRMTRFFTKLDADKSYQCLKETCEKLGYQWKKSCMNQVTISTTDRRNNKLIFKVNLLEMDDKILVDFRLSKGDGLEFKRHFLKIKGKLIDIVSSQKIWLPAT

HEK293 = experiment: Antiproliferative activity against human HEK293 cells after 72 hrs by MTS assay; assay type: functional; settings: HEK293, 72 h
[2] = target: T2, Serine/threonine-protein kinase Chk1 (Homo sapiens, UniProt O14757); experiment: Inhibition of CHK1 (unknown origin) using Cdc25 peptide as substrate preincubated for 30 mins followed by substrate addition and measured after 60 mins by ADP-Glo kinase assay
T2 sequence (O14757 whole entry): T1 sequence (whole entry)

[3] = target: Glycogen synthase kinase-3 beta (Homo sapiens) (UniProt P49841); experiment: Inhibition of DNA-tagged GSK3beta (unknown origin) expressed in HEK293 cells at 10 uM after 1 hr by real-time fluorescent quantitative PCR analysis; assay type: cell-based
HT-29 [4] = experiment: Inhibition of colony formation in human HT-29 cells at <10 uM after 2 weeks by crystal violet staining-based assay; assay type: functional, cell-based
[5] = target: cAMP-dependent protein kinase catalytic subunit alpha (Homo sapiens) (UniProt P17612); experiment: Inhibition of DNA-tagged PKACalpha (unknown origin) expressed in HEK293 cells at 10 uM after 1 hr by real-time fluorescent quantitative PCR analysis; assay type: cell-based
[6] = target: Serine/threonine-protein kinase Chk2 (Homo sapiens) (UniProt O96017); experiment: Inhibition of DNA-tagged CHK2 (unknown origin) expressed in HEK293 cells at 10 uM after 1 hr by real-time fluorescent quantitative PCR analysis; assay type: cell-based
[7] = target: T3, Serine/threonine-protein kinase 3 (Homo sapiens) (UniProt Q13188); experiment: Inhibition of DNA-tagged STK3 (unknown origin) expressed in HEK293 cells at 10 uM after 1 hr by real-time fluorescent quantitative PCR analysis; assay type: cell-based
T3 sequence (whole entry): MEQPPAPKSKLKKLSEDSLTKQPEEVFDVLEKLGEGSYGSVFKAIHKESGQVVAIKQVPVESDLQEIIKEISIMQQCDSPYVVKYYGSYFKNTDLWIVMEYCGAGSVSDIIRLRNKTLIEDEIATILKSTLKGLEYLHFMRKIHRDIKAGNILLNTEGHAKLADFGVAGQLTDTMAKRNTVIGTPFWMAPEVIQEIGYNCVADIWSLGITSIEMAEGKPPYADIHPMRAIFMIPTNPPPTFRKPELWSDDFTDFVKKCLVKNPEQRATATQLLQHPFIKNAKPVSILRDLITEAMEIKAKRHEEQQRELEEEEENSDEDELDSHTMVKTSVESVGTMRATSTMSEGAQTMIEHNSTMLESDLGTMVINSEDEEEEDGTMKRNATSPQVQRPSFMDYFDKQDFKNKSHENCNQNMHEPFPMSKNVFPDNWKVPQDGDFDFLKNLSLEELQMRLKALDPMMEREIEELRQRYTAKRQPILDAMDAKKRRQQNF

[8] = target: T1, Serine/threonine-protein kinase Chk1 (Homo sapiens); experiment: Inhibition of CHK1 (unknown origin) at 10 uM using Cdc25 peptide as substrate preincubated for 30 mins followed by substrate addition and measured after 60 mins by ADP-Glo kinase assay
[9] = target: Mitogen-activated protein kinase 1 (Homo sapiens) (UniProt P28482); experiment: Inhibition of DNA-tagged MAPK1 (unknown origin) expressed in HEK293 cells at 10 uM after 1 hr by real-time fluorescent quantitative PCR analysis; assay type: cell-based
[10] = target: RAC-alpha serine/threonine-protein kinase (Homo sapiens) (UniProt P31749); experiment: Inhibition of DNA-tagged AKT1 (unknown origin) expressed in HEK293 cells at 10 uM after 1 hr by real-time fluorescent quantitative PCR analysis; assay type: cell-based
HT-29 [11] = experiment: Cell cycle arrest in human HT-29 cells assessed as accumulation at S phase at 10 uM after 48 hrs by propidium iodide/RNase staining-based flow cytometric analysis (reference value: 30.9%); assay type: functional
[12] = target: Epidermal growth factor receptor (Homo sapiens) (UniProt P00533); experiment: Inhibition of DNA-tagged EGFR (unknown origin) expressed in HEK293 cells at 10 uM after 1 hr by real-time fluorescent quantitative PCR analysis; assay type: cell-based
HT-29 [13] = experiment: Potentiation of gemcitabine-induced cell cycle arrest in human HT-29 cells assessed as accumulation at G1 phase at 10 uM after 48 hrs by propidium iodide/RNase staining-based flow cytometric analysis (reference value: 62.1%); assay type: functional
[14] = target: T4, Calcium/calmodulin-dependent protein kinase type IV (Homo sapiens) (UniProt Q16566); experiment: Inhibition of DNA-tagged CAMK4 (unknown origin) expressed in HEK293 cells at 10 uM after 1 hr by real-time fluorescent quantitative PCR analysis; assay type: cell-based
T4 sequence (whole entry): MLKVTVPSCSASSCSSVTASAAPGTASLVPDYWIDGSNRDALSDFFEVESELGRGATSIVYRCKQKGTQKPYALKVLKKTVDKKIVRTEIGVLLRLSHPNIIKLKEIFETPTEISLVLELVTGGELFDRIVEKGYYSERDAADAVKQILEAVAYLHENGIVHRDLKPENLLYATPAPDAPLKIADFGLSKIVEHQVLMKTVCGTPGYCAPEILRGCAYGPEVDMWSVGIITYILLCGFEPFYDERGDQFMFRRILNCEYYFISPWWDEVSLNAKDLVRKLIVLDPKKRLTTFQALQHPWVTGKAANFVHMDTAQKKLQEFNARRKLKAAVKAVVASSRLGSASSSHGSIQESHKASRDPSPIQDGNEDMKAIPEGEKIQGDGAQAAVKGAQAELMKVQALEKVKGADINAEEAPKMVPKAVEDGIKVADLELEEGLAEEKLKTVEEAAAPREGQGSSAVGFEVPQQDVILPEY

[15] = target: MAP kinase-activated protein kinase 2 (Homo sapiens) (UniProt P49137); experiment: Inhibition of DNA-tagged MAPKAPK2 (unknown origin) expressed in HEK293 cells at 10 uM after 1 hr by real-time fluorescent quantitative PCR analysis; assay type: cell-based
Sequence of MAP kinase-activated protein kinase 2 (Homo sapiens) (P49137 whole entry, looked up): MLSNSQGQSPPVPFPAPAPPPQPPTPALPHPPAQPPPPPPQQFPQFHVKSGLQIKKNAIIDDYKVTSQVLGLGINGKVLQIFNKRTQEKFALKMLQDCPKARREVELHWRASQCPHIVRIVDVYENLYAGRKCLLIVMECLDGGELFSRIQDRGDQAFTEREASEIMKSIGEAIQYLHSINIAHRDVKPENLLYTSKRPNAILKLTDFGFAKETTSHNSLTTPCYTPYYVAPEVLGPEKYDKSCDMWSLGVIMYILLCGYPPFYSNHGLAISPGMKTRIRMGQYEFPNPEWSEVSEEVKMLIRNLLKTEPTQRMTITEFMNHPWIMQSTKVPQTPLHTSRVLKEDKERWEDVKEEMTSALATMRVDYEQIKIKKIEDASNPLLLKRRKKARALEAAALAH

Sequence of Glycogen synthase kinase-3 beta (Homo sapiens) (P49841 whole entry, looked up): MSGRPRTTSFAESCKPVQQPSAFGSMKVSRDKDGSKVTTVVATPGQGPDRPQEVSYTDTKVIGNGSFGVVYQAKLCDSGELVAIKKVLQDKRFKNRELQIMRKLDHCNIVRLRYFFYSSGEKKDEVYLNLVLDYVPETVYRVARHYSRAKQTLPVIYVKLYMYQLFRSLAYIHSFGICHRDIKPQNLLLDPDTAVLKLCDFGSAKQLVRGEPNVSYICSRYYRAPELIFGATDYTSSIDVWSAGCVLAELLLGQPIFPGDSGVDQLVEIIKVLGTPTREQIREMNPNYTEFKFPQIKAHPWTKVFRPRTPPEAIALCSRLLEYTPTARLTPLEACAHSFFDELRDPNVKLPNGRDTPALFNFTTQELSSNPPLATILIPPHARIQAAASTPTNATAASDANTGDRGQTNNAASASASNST
Sequence of RAC-alpha serine/threonine-protein kinase (Homo sapiens) (P31749 whole entry): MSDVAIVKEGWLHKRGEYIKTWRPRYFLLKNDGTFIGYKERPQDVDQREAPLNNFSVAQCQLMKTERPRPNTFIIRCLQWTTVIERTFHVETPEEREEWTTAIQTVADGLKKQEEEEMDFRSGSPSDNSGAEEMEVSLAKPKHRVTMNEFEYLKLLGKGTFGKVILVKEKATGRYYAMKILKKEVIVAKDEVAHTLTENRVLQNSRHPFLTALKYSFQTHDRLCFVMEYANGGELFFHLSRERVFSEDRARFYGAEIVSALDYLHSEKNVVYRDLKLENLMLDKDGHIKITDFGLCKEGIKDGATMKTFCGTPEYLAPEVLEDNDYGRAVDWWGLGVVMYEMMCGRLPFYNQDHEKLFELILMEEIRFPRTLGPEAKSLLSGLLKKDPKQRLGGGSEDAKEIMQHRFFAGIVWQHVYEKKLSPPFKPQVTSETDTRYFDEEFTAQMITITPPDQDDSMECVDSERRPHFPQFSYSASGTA
Sequence of Epidermal growth factor receptor (Homo sapiens) (P00533 whole entry): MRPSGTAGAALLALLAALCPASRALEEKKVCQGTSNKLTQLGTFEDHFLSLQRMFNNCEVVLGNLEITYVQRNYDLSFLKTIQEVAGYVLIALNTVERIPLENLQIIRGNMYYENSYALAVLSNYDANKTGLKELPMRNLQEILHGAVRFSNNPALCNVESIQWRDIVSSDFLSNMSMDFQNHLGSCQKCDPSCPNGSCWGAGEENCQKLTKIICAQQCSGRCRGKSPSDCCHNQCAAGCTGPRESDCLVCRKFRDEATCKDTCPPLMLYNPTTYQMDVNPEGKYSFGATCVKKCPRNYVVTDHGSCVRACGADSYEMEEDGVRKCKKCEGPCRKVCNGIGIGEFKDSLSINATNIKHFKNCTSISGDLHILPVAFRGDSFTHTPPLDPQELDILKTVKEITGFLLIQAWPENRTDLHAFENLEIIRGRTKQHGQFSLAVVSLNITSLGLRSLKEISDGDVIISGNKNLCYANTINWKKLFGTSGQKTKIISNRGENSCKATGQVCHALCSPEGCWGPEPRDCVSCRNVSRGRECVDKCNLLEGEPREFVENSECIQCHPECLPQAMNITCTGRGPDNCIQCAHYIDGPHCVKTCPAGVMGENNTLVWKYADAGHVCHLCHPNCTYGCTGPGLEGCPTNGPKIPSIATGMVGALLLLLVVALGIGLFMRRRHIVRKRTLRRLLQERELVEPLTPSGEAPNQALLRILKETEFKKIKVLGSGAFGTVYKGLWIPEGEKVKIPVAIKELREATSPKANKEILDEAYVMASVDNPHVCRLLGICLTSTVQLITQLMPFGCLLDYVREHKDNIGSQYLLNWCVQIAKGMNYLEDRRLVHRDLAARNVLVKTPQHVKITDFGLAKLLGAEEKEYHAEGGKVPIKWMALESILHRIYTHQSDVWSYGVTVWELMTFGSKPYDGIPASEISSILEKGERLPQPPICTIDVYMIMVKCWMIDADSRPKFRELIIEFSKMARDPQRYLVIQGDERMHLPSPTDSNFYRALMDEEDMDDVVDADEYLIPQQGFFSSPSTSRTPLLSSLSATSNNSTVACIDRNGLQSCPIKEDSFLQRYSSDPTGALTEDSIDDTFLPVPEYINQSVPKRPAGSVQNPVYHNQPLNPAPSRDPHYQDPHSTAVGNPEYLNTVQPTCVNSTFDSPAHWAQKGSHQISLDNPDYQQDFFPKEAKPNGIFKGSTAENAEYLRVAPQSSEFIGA
Sequence of Serine/threonine-protein kinase Chk2 (Homo sapiens) (O96017 whole entry): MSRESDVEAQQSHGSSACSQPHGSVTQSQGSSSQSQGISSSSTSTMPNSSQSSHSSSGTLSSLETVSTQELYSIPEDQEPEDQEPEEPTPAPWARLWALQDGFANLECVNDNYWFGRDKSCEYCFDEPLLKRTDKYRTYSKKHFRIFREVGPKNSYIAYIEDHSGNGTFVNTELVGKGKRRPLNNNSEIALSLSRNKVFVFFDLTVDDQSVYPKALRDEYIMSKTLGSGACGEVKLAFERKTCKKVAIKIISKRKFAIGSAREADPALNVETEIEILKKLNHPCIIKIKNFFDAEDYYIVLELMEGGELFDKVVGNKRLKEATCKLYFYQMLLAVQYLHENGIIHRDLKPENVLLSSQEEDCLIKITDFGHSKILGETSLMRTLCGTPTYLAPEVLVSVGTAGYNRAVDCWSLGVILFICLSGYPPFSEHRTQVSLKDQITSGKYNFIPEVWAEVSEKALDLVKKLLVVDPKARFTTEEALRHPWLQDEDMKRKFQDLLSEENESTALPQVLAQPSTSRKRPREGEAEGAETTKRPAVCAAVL
Sequence of Mitogen-activated protein kinase 1 (Homo sapiens) (P28482 whole entry): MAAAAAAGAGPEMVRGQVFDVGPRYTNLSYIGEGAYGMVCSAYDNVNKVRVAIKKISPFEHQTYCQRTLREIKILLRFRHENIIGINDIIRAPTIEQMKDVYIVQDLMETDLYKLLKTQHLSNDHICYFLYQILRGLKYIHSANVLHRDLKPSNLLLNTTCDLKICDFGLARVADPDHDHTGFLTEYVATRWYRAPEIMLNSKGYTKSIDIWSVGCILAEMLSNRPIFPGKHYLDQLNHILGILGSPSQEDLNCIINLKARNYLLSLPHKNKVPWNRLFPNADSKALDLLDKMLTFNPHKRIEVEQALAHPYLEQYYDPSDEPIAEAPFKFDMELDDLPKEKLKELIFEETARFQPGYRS

## Fc1ccc(Nc2nc(N3CCOCC3)c3nc[nH]c3n2)cc1
[1]
  inhibition: 89.9%
HEK293
  GI50: > 100 µM
[2]
  IC50: 0.684 µM
[3]
  inhibition: 47%
HT-29 [4]
  inhibition: inactive
[5]
  inhibition: 0%
[6]
  inhibition: 72%
[7]
  inhibition: 44%
[8]
  inhibition: 89.9%
[9]
  inhibition: 33%
[10]
  inhibition: 0%
HT-29 [11]
  Activity: 29.5%
[12]
  inhibition: 0%
HT-29 [13]
  Activity: 13.8%
[14]
  inhibition: 0%
[15]
  inhibition: 18%
